From US7683061B2, “Triazine dimers for the treatment of autoimmune diseases” (ProMetic BioSciences Inc., priority 2003, dated 2010) come the findings set out here.

Like-named read-outs stand apart in the source and are kept apart here.

Data set [1] deals with TNFα production, J774A-1 cells. Kind of data set: LPS-induced TNFα production in J774A-1 cells (ELISA). Format: cell-based. The following applies: Mus musculus, J774.A1, 24 h, read-out: IC50 (μM), inhibition of TNFα released by LPS induction. The protocol:
Effect of compounds on TNFα production was measured by ELISA using J774-1 cells stimulated by LPS. J774-1 cells were cultured in the presence or absence of LPS and compound. Cells were cultured at 37° C. for 24 h and thereafter the supernatants were collected for the determination of the concentration of TNFα by ELISA as recommended by the manufacturer (BD Biosciences). Data was analyzed in Microsoft Excel and the concentration of compound which inhibits 50% of TNFα production (IC50) was calculated using Prism software.
In general terms: In an ELISA, binding on a coated surface is turned into a signal by an enzyme label.

In data set [2] the target is T1, TNFα / p75 TNFα receptor (CD120b) (Homo sapiens, UniProt P01375). Kind of data set: Binding ELISA: TNF-α binding to plastic coated TNF-R2. To be noted: for inhibition at 100 µM: 10^−4 M; for inhibition at 10 µM: 10^−5 M. The protocol:
(§1) Compounds were tested for their ability to bind to TNFα or inhibit the interaction of TNFα with its respective receptors; p55 and p75 TNFα receptor. Three binding ELISA assays were undertaken as described by Mancini et al. Biochemical Pharmacology 58, 851-859 (1999). TNFα or receptor (1 μg/mL) was coated on a 96-well plate Maxisorp, overnight at 4° C. After incubation, unbound TNFα or p55 TNFα receptor or p75 TNFα receptor was removed and the plate washed three times with PBS. The plate was then incubated with 100 μL/well of a 2% BSA solution for 1 h at 37° C. to block non specific protein binding. After incubation, the plate was washed three times with PBS. Biotinylated recombinant human TNFα p55 or p75 receptor or biotinylated recombinant human TNFα was added to the wells in the presence or absence of compounds. The plate was incubated for 1 h at 37° C. After incubation, the plate was washed three times with PBS to remove unbound labeled p55 or p75 receptor or recombinant human TNFα. 100 μL of avidin-HRP (diluted 1/2000 in PBS-0.1% BSA) was added to each well and incubated 1 h at 37° C. Bound p55 or p75 receptor or recombinant human TNFα was detected by the addition of 200 μL of 3,3′,5,5′-tetramethylbenzidine (TMB) per well for 15 min. The plate was then read at 655 nm on a EL 800 universal Microplate reader (Bio-Tek, Mississauga, Canada). Data was analyzed in Microsoft Excel and recorded as the percentage of inhibition of p55 or p75 binding to TNFα or TNFα binding to RI (p55) or RII (p75).

The target in data set [3] is T1, TNFα / p75 TNFα receptor (CD120b). Kind of data set: Binding ELISA: sTNF-R2 binding to plastic coated TNF-α. The following applies: for inhibition at 100 µM: 10^−4 M; for inhibition at 10 µM: 10^−5 M. Here is the method: as §1
Data set [4] concerns the target T2, TNFα / p55 TNFα receptor (CD120a) (Homo sapiens, UniProt P01375). Kind of data set: Binding ELISA: TNF-α binding to plastic coated TNF-R1. To be noted: for inhibition at 100 µM: 10^−4 M; for inhibition at 10 µM: 10^−5 M. The protocol: as §1
Data set [5] deals with T3, Fc portion of human IgG (binding of protein A to human IgG).
T3 construct: fused on or other part: Horseradish peroxidase chemically conjugated to the IgG (HRP-IgG)
Description: Competitive protein A binding ELISA. The protocol:
As described above, this assay evaluates the ability of the exemplified compounds to mimic protein A. Such compounds can bind to the Fc portion of human IgG as ascertained by the inhibition of binding of protein A to human IgG. The competitive protein A binding ELISA assay was performed on a 96-well plate Maxisorp surface to enhance the binding of protein A to the bottom of the plate. The wells were coated with 100 μL of protein A (0.8 μg) and incubated overnight at 4° C. After incubation, unbound protein A was removed by three washes with phosphate buffer saline (PBS). The plate was then incubated with 100 μL/well of a 2% solution of bovine serum albumin (BSA) for 1 h at 37° C. to block non specific protein binding. After incubation, the plate was washed to times with PBS. 50 μL of compound or protein A, diluted in PBS or PBS-20% DMSO at appropriate concentration, were added to the wells followed by addition of 50 μL of peroxidase-conjugated human IgG (HRP-IgG). After 1 h incubation at 37° C., the plate was washed free times with PBS to remove unbound HRP-IgG. Bound HRP-IgG was detected by incubation with 100 μL of 2,2′-Azino-di[3-ethylbenzothiazoline sulfonate]diammonium salt crystals (ABTS) solution for 20 min in the dark at room temperature. The plate was then read at 405 nm on a EL 800, universal Microplate reader (Bio-Tek). Data was analyzed in Microsoft Excel and the concentration of compound which inhibits 50% binding of protein A (IC50) was calculated using Prism software.
Table 1 represents the IC50 of compounds tested in the competitive protein A binding ELISA assay, which consists of a side-by-side analysis in PBS and PBS-20% DMSO. DMSO was used to increase the solubility of some of the compounds.

Data set [6] relates to TNFα-induced apoptosis, WEHI-13VAR cells. Description: TNFα induced apoptosis in WEHI-13VAR cells (MTT). It counts as cell-based, murine. To be noted: Mus musculus; for inhibition at 10 µM: 1 × 10^−5M; for inhibition at 20 µM: 2 × 10^−5M; for inhibition at 40 µM: 4 × 10^−5M; for inhibition at 5 µM: 5 × 10^−6M. The protocol: Effect of compounds on TNFα-induced apoptosis was measured by a standard biological assay using WEHI-13VAR cells. These cells undergo apoptosis when they are incubated in the presence of TNFα and actinomycin D. 2×10^4 WEHI-13VAR cells were incubated in RPMI supplemented with 1% sodium pyruvate and 10% FBS, overnight at 37° C. for cell adherence. The cells were then cultured in the presence of 1 μg/mL of actinomycin D (to inhibit protein synthesis) and 0.04 nM TNFα with or without compounds at 37° C. After 16-24 h, 50 μL of a solution of 2 mg/mL of MTT was added to each well and the plate was then incubated for 4 h at 37° C. Only viable cells metabolize MTT to form formazan salt, which is detectable by the measurement of absorbance at 570 nm. After the incubation, the plate was inverted to remove medium and dead cells. 150 μL DMSO was added to each well to stop the reaction and solubilize the formazan salt. Optical density was read on a EL 800, universal Microplate reader (Bio-Tek). A decrease in the optical density is direct evidence of cell apoptosis induced by TNFα. Compounds were also compared to the activity of an anti-TNFα neutralizing antibody.

In data set [7] the target is T2, TNFα / p55 TNFα receptor (CD120a). Description: Binding ELISA: sTNF-R1 binding to plastic coated TNF-α. The following applies: for inhibition at 100 µM: 10^−4 M; for inhibition at 10 µM: 10^−5 M. Here is the method: as §1
Data set [8] deals with peripheral blood mononuclear leukocytes (PBML). Description: PBML DNA synthesis (thymidine). It counts as cell-based, human. To be noted: for IC50: Homo sapiens, Leukocyte. From the text:
(§2) PBML were obtained from the peripheral blood of healthy volunteers. Blood was submitted to gradient centrifugation with Lympholyte-poly (Cedarlane, Hornby, Canada). The layer, which contains the mononuclear leukocytes, was collected and the cells washed three times in PBS. Cells were then suspended in RPMI (Gibco, Burlington, Canada) supplemented with […] (cyclone, Logan USA). Viability was greater than 99% as determined by trypan blue exclusion.
(§3) PBML were resuspended at 2×10^6 cells mL. 100 μL of PBML (2×10^5 cells) were incubated in a 96-well microtiter plate for 48 h in the presence or absence of compound or protein A. Cells were quiescent or stimulated with concanavalin A (ConA; T-cells) or pokeweed mitogen (PWM; B-cells). After incubation, cells were treated with MTT (cytotoxicity) or pulsed with 1 μCi of [^3]-thymidine (DNA synthesis), [^3H]-uridine (RNA synthesis) or [^3]-leucine (protein synthesis) for 6 h. Plates were harvested on a Tomteck and counted on a Microbeta β-counter.

A further data set can be described thus: PBML cytotoxicity (MTT). It counts as cell-based. To be noted: human.
Text: as §2, §3

Data set [9] has as its system peripheral blood mononuclear leukocytes (PBML). Kind of data set: PBML RNA synthesis (uridine). It counts as cell-based, human. To be noted: for IC50: Homo sapiens, Leukocyte.
Text: as §2, §3

Data set [10] has the same test system. Kind of data set: PBML protein synthesis (leucine). It counts as cell-based, human. The following applies: Homo sapiens, Leukocyte.
Text: as §2, §3

[11] abbreviates: Table 1, PBS-20% DMSO, read-out: IC50 (μM): Assay in PBS-20% DMSO.
Where [12] appears, read: Table 1, PBS, read-out: IC50 (μM): Assay in PBS.
Where [13] appears, read: resting and stimulated (ConA and PWM) PBML.

T1 sequence (P01375 77-233 limits assumed): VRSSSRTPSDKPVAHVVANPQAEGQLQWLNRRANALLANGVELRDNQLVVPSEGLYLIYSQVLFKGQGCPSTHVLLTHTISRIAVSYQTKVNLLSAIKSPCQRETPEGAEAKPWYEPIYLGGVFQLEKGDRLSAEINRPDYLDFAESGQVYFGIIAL
T2 sequence (P01375 77-233 limits assumed): as above

As to `NCCc1ccc(Nc2nc(NCCNc3nc(Nc4ccccc4)nc(Nc4ccc(CCN)cc4)n3)nc(Nc3ccccc3)n2)cc1` [Compound 4], the figures for the IC50 in data set [1], in [5] (setting [11]) and in data set [5] (setting [12]) were 94.4 µM, 40 µM and 44 µM, respectively. The inhibition at 100 µM was -105% in data set [2], 5.26% in [3], -69.4% in [4] and 2.19% in data set [7]. Besides, the inhibition at 10 µM was -86.7% in data set [2]; 2.06% in [3]; -47.4% in data set [4]; 11.2% in data set [6]; 4.5% in data set [7]. For the same compound, the inhibition at 20 µM in data set [6] was 25.3%. In [6], the inhibition at 40 µM is 44%. Moreover, in data set [6], the inhibition at 5 µM was 2.4%.

Regarding `Cc1ccccc1Nc1nc(NCCNc2nc(NCCc3ccc(O)cc3)nc(Nc3ccccc3C)n2)nc(NCCc2ccc(O)cc2)n1` [Compound 5], the figures for the IC50 in data set [1] and in data set [5] (setting [11]) were 44 µM and 36 µM, respectively. Further, the inhibition at 100 µM is 38.5% in data set [2], 2.68% in [3], 15.4% in data set [4] and 1.54% in data set [7]. Also, the inhibition at 10 µM in [2] stood at 21.2%; in data set [3], 4.31%; in data set [4], 4.6%; in data set [6] it was 35.1%; in data set [7], 2.95%. Besides, the inhibition at 20 µM in data set [6] was 38.7%. The inhibition at 40 µM in data set [6] came out at 35.4%. Besides, the inhibition at 5 µM in data set [6] stood at 28.9%.

In the case of `Nc1ccc(CCNc2nc(NCCNc3nc(NCCc4ccc(N)cc4)nc(Nc4cccc(N)c4)n3)nc(Nc3cccc(N)c3)n2)cc1` [Compound 7], the IC50 came out at 3.52 µM in data set [8] (ConA stimulated PBML); 1.28 µM in [8] (PWM stimulated PBML); 3.6 µM in [8] (Resting PBML); 1.5 µM in [9] (ConA stimulated PBML); 1.78 µM in data set [9] (PWM stimulated PBML); 1.12 µM in [9] (Resting PBML). Besides, the IC50 is 0.02 µM in data set [5] (setting [11]); 0.2 µM in data set [5] (setting [12]); 0.0217 µM in data set [5] (Table 2, PBS-20% DMSO, n = 5 or 6, read-out: IC50 (n = 5 or 6) PBS-20% DMSO); 0.187 µM in data set [5] (Table 2, PBS, n = 5 or 6, read-out: IC50 (n = 5 or 6) PBS); above 10 µM in [10] (ConA stimulated PBML); above 10 µM in data set [10] (PWM stimulated PBML). The IC50 in [10] (Resting PBML) is above 10 µM. Besides, in data set [8] (setting [13]), the “effect on DNA synthesis (in words)” value is “suppress”. The IC50 at 48 h in “PBML cytotoxicity (MTT)” (ConA stimulated PBML), in “PBML cytotoxicity (MTT)” (PWM stimulated PBML) and in the data set “PBML cytotoxicity (MTT)” (Resting PBML) was above 10 µM in each case. The inhibition at 100 µM was 36.9% in data set [2] and 32.6% in data set [4]. Moreover, the inhibition at 10 µM in data set [2] came to 43.3%; in [4], 10.4%. For the same compound, in [9] (setting [13]), the “effect on RNA synthesis (in words)” value is “suppress”.

On to `CN(C)CCCC(=O)Oc1ccc(CCNc2nc(NCCNc3nc(NCCc4ccc(OC(=O)CCCN(C)C)cc4)nc(Nc4ccccc4)n3)nc(Nc3ccccc3)n2)cc1` [Compound 12], for which the IC50 in [1] came out at 3.4 µM. Further, in [2], the inhibition at 100 µM was 3.8% and the inhibition at 10 µM was -30.4%. In data set [4], the inhibition at 100 µM was -8.4% and the inhibition at 10 µM was -35.7%. The IC50 in data set [5] (setting [11]) was found to be 39 µM. Further, in data set [5] (setting [12]), the IC50 is 23 µM. For the same compound, in [6], the inhibition at 10 µM is -21.1%, the inhibition at 20 µM is -28.4%, the inhibition at 40 µM is -30% and the inhibition at 5 µM stood at 36.9%.

Regarding `Oc1ccc(CCNc2nc(NCCCNc3nc(NCCc4ccc(O)cc4)nc(Nc4ccccc4)n3)nc(Nc3ccccc3)n2)cc1` [Compound 25], in data set [1], the IC50 was 15.9 µM. The inhibition at 100 µM in data set [2] worked out at 49.2%; in [3], 4.22%; in data set [4] it was 22.9%; in data set [7] it was 5.65%. The inhibition at 10 µM in [2] was 4.8%; in data set [3], 6.76%; in data set [4] it was 3.95%; in data set [6], 22.8%; in [7], 6.74%. The inhibition at 20 µM in data set [6] is -0.7%. Also, the inhibition at 40 µM in [6] was -17.8%. Besides, in [6], the inhibition at 5 µM was found to be 27.5%.

One may read the IC50 as the midpoint of a concentration-inhibition curve. Usually inhibition stands for the relative decrease from the control value, in per cent.
